Results published in patent US8058475B2, “Substituted cyclohexylmethyl compounds” (Gruenenthal GmbH, priority 2005, dated 2011).

Molecular target: human μ-opiate receptor (Homo sapiens, UniProt P35372)
Test: Affinity for the human μ-opiate receptor ([3H]-naloxone displacement, SPA, CHO-K1 membrane preparation)
Format: binding
Conditions: for inhibition at 1 µM: read-out: μ-Opioid receptor, % inhibition [1 μM]; for Ki: read-out: μ-Opioid receptor, Ki

Sequence of human μ-opiate receptor (P35372 whole entry): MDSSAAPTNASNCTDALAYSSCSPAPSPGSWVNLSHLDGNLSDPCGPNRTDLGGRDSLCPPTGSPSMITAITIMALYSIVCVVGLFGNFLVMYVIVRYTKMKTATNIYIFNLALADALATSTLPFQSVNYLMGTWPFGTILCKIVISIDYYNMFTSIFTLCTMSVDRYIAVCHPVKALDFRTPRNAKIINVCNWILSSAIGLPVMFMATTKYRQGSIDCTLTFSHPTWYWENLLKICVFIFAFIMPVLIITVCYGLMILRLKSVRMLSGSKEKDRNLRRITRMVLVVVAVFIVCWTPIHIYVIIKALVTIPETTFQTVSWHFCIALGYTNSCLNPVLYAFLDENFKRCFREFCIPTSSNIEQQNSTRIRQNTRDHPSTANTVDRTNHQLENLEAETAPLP

| SMILES | inhibition at 1 µM [%] | Ki [nM] | μ-Opioid receptor, % inhibition [1 μM] (1 µM) [%] |
| --- | --- | --- | --- |
| CN(C)C(CCc1ccccc1)C1CCC(NC(=O)c2cccc(Cl)c2)CC1 (stereo not shown) [compound 241, 3-chloro-N-[4-(1-dimethylamino-3-phenyl-propyl)-cyclohexyl]-benzamide] | 82 | 68 | – |
| CCC(C(=O)NCC1CCC(C(c2ccccc2)N(C)C)CC1)c1ccccc1 (stereo not shown) [compound 321, N-[4-(dimethylamino-phenyl-methyl)-cyclohexylmethyl]-2-phenyl-butyramide] | 95 | 22 | – |
| COc1c(C(=O)NCCC2CCC(C(c3ccc(F)cc3)N(C)C)CC2)csc1Cl (stereo not shown) [compound 475, 5-chloro-4-methoxy-thiophene-3-carboxylic acid (2-{4-[dimethylamino-(4-fluoro-phenyl)-methyl]-cyclohexyl}-ethyl)-amide] | 97 | 6.9 | – |
| CN(C)C(c1cccc(F)c1)C1CCC(NC(=O)c2ccc(Cl)c(Cl)c2)CC1 (stereo not shown) [compound 209, 3,4-dichloro-N-{4-[dimethylamino-(3-fluoro-phenyl)-methyl]-cyclohexyl}-benzamide] | 92 | 47 | – |
| COc1ccccc1C(=O)NCCC1CCC(C(c2ccc(F)cc2)N(C)C)CC1 (stereo not shown) [compound 432, N-(2-{4-[dimethylamino-(4-fluoro-phenyl)-methyl]-cyclohexyl}-ethyl)-2-methoxy-benzamide] | 95 | 18 | – |
| CN(C)C(c1ccccc1)C1CCC(NC(=O)COc2ccc(Cl)cc2)CC1 (stereo not shown) [compound 284, 2-(4-chloro-phenoxy)-N-[4-(dimethylamino-phenyl-methyl)-cyclohexyl]-acetamide] | 72 | 63 | – |
| Cc1nc(-c2ccccc2)sc1C(=O)NC1CCC(C(c2cccc(F)c2)N(C)C)CC1 (stereo not shown) [compound 256, 4-methyl-2-phenyl-thiazole-5-carboxylic acid {4-[dimethylamino-(3-fluoro-phenyl)-methyl]-cyclohexyl}-amide] | 80 | 80 | – |
| CN(C)C(c1ccccc1)C1CCC(NC(=O)C2(c3ccc(Cl)cc3)CCCC2)CC1 (stereo not shown) [compound 184, 1-(4-chloro-phenyl)-cyclopentanecarboxylic acid [4-(dimethylamino-phenyl-methyl)-cyclohexyl]-amide] | 101 | 5.2 | – |
| Cc1oc(-c2ccc(Cl)cc2)cc1C(=O)NC1CCC(C(c2ccccc2)N(C)C)CC1 (stereo not shown) [compound 232, 5-(4-chloro-phenyl)-2-methyl-furan-3-carboxylic acid [4-(dimethylamino-phenyl-methyl)-cyclohexyl]-amide] | 84 | 74 | – |
| Cc1ccccc1C(=O)NCCC1CCC(C(c2ccccc2)N(C)C)CC1 (single isomer, unassigned) [compound 418, N-{2-[4-(dimethylamino-phenyl-methyl)-cyclohexyl]-ethyl}-2-methyl-benzamide] | – | 43 | 92 |
| CN(C)C(c1ccccc1)C1CCC(CNC(=O)c2c(Cl)cc(Cl)cc2Cl)CC1 (stereo not shown) [compound 338, 2,4,6-trichloro-N-[4-(dimethylamino-phenyl-methyl)-cyclohexylmethyl]-benzamide] | 91 | 28 | – |
| CCC(C(=O)NC1CCC(C(c2ccccc2)N(C)C)CC1)c1ccccc1 (single isomer, unassigned) [compound 234, N-[4-(dimethylamino-phenyl-methyl)-cyclohexyl]-2-phenyl-butyramide] | 84 | 46 | – |
| COc1c(C(=O)NC2CCC(C(c3ccccc3)N(C)C)CC2)csc1Cl (stereo not shown) [compound 188, 5-chloro-4-methoxy-thiophene-3-carboxylic acid [4-(dimethylamino-phenyl-methyl)-cyclohexyl]-amide] | 100 | 5.2 | – |
| Cc1c(S(=O)(=O)c2ccc(Cl)cc2)csc1C(=O)NC1CCC(C(c2ccccc2)N(C)C)CC1 (stereo not shown) [compound 233, 4-(4-chloro-benzenesulfonyl)-3-methyl-thiophene-2-carboxylic acid [4-(dimethylamino-phenyl-methyl)-cyclohexyl]-amide] | 84 | 71 | – |
